In the Deep4Chem optical property database:
Values belong to the compound of their own block, whether it stands above or below them.

Experiment: solvent given as SMILES
[1] = in O=P(c1ccccc1)(c1ccccc1)c1ccc2oc3ccc(P(=O)(c4ccccc4)c4ccccc4)cc3c2c1

emission maximum (in ClCCl): 639 nm
SMILES: c1ccc(N(c2ccccc2)c2ccc(-c3ccc(-c4ccc(N(c5ccccc5)c5ccccc5)cc4)c4nsnc34)cc2)cc1

emission maximum (in ClCCl): 367 nm
SMILES: COc1ccc(-n2c3ccccc3c3c(C)cc4ccccc4c32)cc1

emission maximum (in CC#N): 450 nm
emission maximum (in CCCCCC): 385 nm
SMILES: CN(c1ccccc1)c1ccc(/C=C/c2ccccc2)cc1

emission maximum (in ClC(Cl)Cl): 379 nm
SMILES: CC(C)(C)c1ccc2oc3nc4oc5ccc(N(c6ccccc6)c6ccccc6)cc5c4cc3c2c1

emission maximum (in ClCCl): 466 nm
SMILES: COc1ccc(C#Cc2c(C#Cc3ccc(OC)cc3)c(C#Cc3ccc(OC)cc3)c(C#Cc3ccc(OC)cc3)c(C#Cc3ccc(OC)cc3)c2C#Cc2ccc(OC)cc2)cc1

emission maximum (in C1CCOC1): 418 nm
emission maximum (in C1COCCO1): 421 nm
emission maximum (in CC#N): 421 nm
emission maximum (in CCCCCO): 422 nm
emission maximum (in CCCCO): 422 nm
emission maximum (in CCCO): 422 nm
emission maximum (in CCO): 421 nm
emission maximum (in CO): 421 nm
emission maximum (in COCCOC): 419 nm
emission maximum (in ClC(Cl)Cl): 436 nm
emission maximum (in ClCCl): 422 nm
emission maximum (in OCCO): 425 nm
SMILES: O=C(O)c1c2ccccc2nc2ccccc12

emission maximum (in C1CCCCC1): 418.86 nm
emission maximum (in C1CCOC1): 416.47 nm
emission maximum (in CC#N): 414.88 nm
emission maximum (in CCCCCC): 417.26 nm
emission maximum (in CCO): 416.27 nm
emission maximum (in CN(C)C=O): 417.86 nm
emission maximum (in CO): 418.06 nm
emission maximum (in ClC(Cl)Cl): 417.61 nm
emission maximum (in ClCCl): 417.26 nm
SMILES: COc1ccc(-c2cc3ccc4cc(-c5ccc(OC)cc5)cc5ccc(c2)c3c45)cc1

emission maximum (in C1CCOC1): 468 nm
SMILES: Cc1cc(C2=C(c3cc(C)sc3C)P(=O)(c3ccccc3)c3ccccc32)c(C)s1 (centres undefined)

emission maximum (in ClCCl): 453 nm
SMILES: C(#Cc1c(C#Cc2cccs2)c(C#Cc2cccs2)c(C#Cc2cccs2)c(C#Cc2cccs2)c1C#Cc1cccs1)c1cccs1

emission maximum (in ClCCl): 425 nm
SMILES: O=P1(c2ccccc2)C(c2ccc(C(F)(F)F)cc2)=Cc2cc3ccccc3cc21 (centres undefined)

emission maximum (in C1COCCO1): 354 nm
SMILES: c1ccc(-c2cc(-c3ccccc3)cc(-c3ccccc3)c2)cc1

emission maximum (in C1CCOC1): 416 nm
SMILES: CCCCCCCCCc1c2ccccc2cc2c1oc1c3c(c4ccccc4c12)-c1c(c2oc4cc5ccccc5cc4c2c2ccccc12)OCO3

emission maximum (in CS(C)=O): 381 nm
SMILES: CCCn1c(-c2cc(-c3nc4ccccc4n3CCC)cc(-c3nc4ccccc4n3CCC)c2)nc2ccccc21

emission maximum (in CC#N): 397 nm
SMILES: CN(C)c1ccc(-c2nc3ccccc3n2-c2ccccc2)cc1

emission maximum (in C1CCOC1): 445 nm
SMILES: C(=C(c1ccccc1)c1ccccc1)c1ccc(-c2ccc(C=C(c3ccccc3)c3ccccc3)cc2)cc1

emission maximum (in ClCCl): 438 nm
SMILES: C(#Cc1nc(C#Cc2ccccc2)c(C#Cc2ccccc2)c(C#Cc2ccccc2)c1C#Cc1ccccc1)c1ccccc1

emission maximum (in C1CCCCC1): 380 nm
emission maximum (in CO): 410 nm
SMILES: Cc1ccc(/C=C(\c2ccccc2)c2nc3ccccc3s2)cc1

emission maximum (in CCO): 458 nm
SMILES: Cc1c(COC(=O)Cc2cccc3ccccc23)n2c(OCC(=O)Cc3cccc4ccccc34)c(C)c(=O)n2c1=O

Continued, compound first:

SMILES: CC(C)c1ccc2ccc3cccc4ccc1c2c34
emission maximum (in CCCCCC): 376 nm
emission maximum (in CO): 376 nm
emission maximum (in ClCCl): 377 nm

SMILES: CC(C)CN1C(=O)/C(=C/c2ccc(C#N)cc2)C=C1c1ccccc1
emission maximum (in C1COCCO1): 598 nm

SMILES: Cc1cc(N(C)C)ccc1C1=C2C=CC(=[N+](C)C)C=C2[Si](C)(C)c2cc(N(C)C)ccc21
emission maximum (in O): 663 nm

SMILES: O=P1(c2ccccc2)C(c2cc(C(F)(F)F)cc(C(F)(F)F)c2)=Cc2c3ccc4cccc5ccc(c6cc(-c7ccccc7)n1c26)c3c45 (centres undefined)
emission maximum (in C1CCCCC1): 501 nm
emission maximum (in C1CCOC1): 521 nm
emission maximum (in C1COCCO1): 514 nm
emission maximum (in CC#N): 531 nm
emission maximum (in CC(C)=O): 526 nm
emission maximum (in CO): 524 nm
emission maximum (in Cc1ccccc1): 514 nm
emission maximum (in ClC(Cl)Cl): 514 nm
emission maximum (in ClCCl): 521 nm

SMILES: O=C([O-])c1ccccc1C1=c2cc3c4c(c2Oc2c1cc1c5c2CCCN5CCC1)CCC[N+]=4CCC3
emission maximum (in CC#N): 603 nm
emission maximum (in CCO): 593 nm
emission maximum (in CN(C)C=O): 608 nm
emission maximum (in O): 604 nm

SMILES: COc1ccc(-c2nc(-c3ccccc3)c(N(C)C)[se]2)cc1
emission maximum (in ClC(Cl)Cl): 438 nm

SMILES: CCCCCCCCCCCCn1nnc(-c2ccc(C#Cc3ccc(C#Cc4ccc(-c5nnn(CCCCCCCCCCCC)n5)cc4)c4nc5c6ccccc6c6ccccc6c5nc34)cc2)n1
emission maximum (in C1CCOC1): 495 nm
emission maximum (in Cc1ccccc1): 488 nm
emission maximum (in ClCCl): 502 nm

SMILES: Cn1c(=O)c(/N=N/c2cc(S(=O)(=O)O)ccc2S(=O)(=O)O)c(O)c2ccccc21
emission maximum (in C1CCOC1): 498 nm
emission maximum (in CC(C)=O): 491 nm
emission maximum (in CCOC(C)=O): 493 nm
emission maximum (in CO): 483 nm
emission maximum (in CS(C)=O): 490 nm
emission maximum (in Cc1ccccc1): 490 nm
emission maximum (in ClCCl): 493 nm
emission maximum (in O): 500 nm

SMILES: c1cc2c3c(cccc3c1)NC(c1ccc3ccc4cccc5ccc1c3c45)N2
emission maximum (in CC#N): 458 nm
emission maximum (in CO): 450 nm
emission maximum (in CS(C)=O): 420 nm
emission maximum (in Cc1ccccc1): 502 nm

SMILES: O=c1oc2ccc(Cl)cc2cc1-c1cc2cc(Cl)ccc2o1
emission maximum (in CC#N): 431 nm
emission maximum (in CCOC(C)=O): 429 nm
emission maximum (in CS(C)=O): 488 nm
emission maximum (in Cc1ccccc1): 433 nm
emission maximum (in O): 473 nm

SMILES: CN(C)c1ccc(C(=O)Nc2cccc(Cl)c2)cc1
emission maximum (in C1CCCCC1): 338 nm
emission maximum (in C1CCOC1): 455 nm
emission maximum (in CC#N): 496 nm
emission maximum (in CCOCC): 445 nm

SMILES: Cc1cc(-n2c3ccccc3c3ccccc32)ccc1-c1ccc(S(=O)(=O)c2ccccc2)cc1C
emission maximum (in C1CCOC1): 401.77 nm
emission maximum (in CC#N): 450.48 nm
emission maximum (in Cc1ccccc1): 349 nm
emission maximum (in ClCCl): 419.86 nm

SMILES: O=C(O)C1=C/C(=C/C=[N+]2/c3cc(O)c(C[C@@H]4O[C@H](CO)[C@@H](O)C(O)[C@H]4O)cc3C[C@H]2C(=O)O)C[C@@H](C(=O)O)N1 (some centres undefined)
emission maximum (in CO): 611 nm
emission maximum (in O): 640 nm
emission maximum (in OCCO): 607 nm
emission maximum (in [2H]O[2H]): 640 nm

SMILES: CCCCCCCCC1(CCCCCCCC)c2cc(-c3ccc(C(=O)OC)cc3)ccc2-c2ccc(-c3ccc(C(=O)OC)cc3)cc21
emission maximum (in ClC(Cl)Cl): 388 nm

SMILES: CC1CC=C(c2ccc(-c3cccs3)s2)CC1 (centres undefined)
emission maximum (in C1CCOC1): 412 nm
emission maximum (in CC#N): 404 nm
emission maximum (in CCCCCC): 408 nm
emission maximum (in CCO): 411 nm
emission maximum (in OCCOCCO): 414 nm
emission maximum (in c1ccncc1): 417 nm

SMILES: CCCCN1C(=O)c2cccc3c(N(C)C)ccc(c23)C1=O
emission maximum (in Cc1ccccc1): 486 nm

SMILES: c1cc2cc(c1)c1ccc3c(c1)c1cc(ccc1[C@]14OCCO[C@]31OCCO4)c1ccc3c(c1)c1cc(ccc1[C@]14OCCO[C@]31OCCO4)c1cccc2c1
emission maximum (in ClC(Cl)Cl): 347 nm

SMILES: CSc1cc(-c2cc3cc4c5c(c3oc2=O)CCCN5CCC4)oc(=O)c1C#N
emission maximum (in C1CCOC1): 580 nm
emission maximum (in CC#N): 603 nm
emission maximum (in CC(C)=O): 596 nm
emission maximum (in CCOC(C)=O): 575 nm
emission maximum (in CN(C)C=O): 612 nm
emission maximum (in CO): 601 nm
emission maximum (in CS(C)=O): 616 nm
emission maximum (in Cc1ccccc1): 553 nm
emission maximum (in ClC(Cl)Cl): 570 nm
emission maximum (in ClCCl): 586 nm

SMILES: Clc1nc(Cl)nc(Nc2cc3ccc4cccc5ccc(c2)c3c45)n1
emission maximum (in CCCCOCCCC): 374 nm

SMILES: c1cc2ccc3[nH]c4ccc5cccc6c(c1)c2c3c4c56
emission maximum (in ClC(Cl)Cl): 436 nm

SMILES: CC(C)(C)c1cc2ccc3cc(C(C)(C)C)cc4c3c2c(c1)c(=O)n1c4nc2c3cc(C(C)(C)C)cc4ccc5cc(C(C)(C)C)cc(c5c43)c21
emission maximum (in C1CCOC1): 523 nm
emission maximum (in CC#N): 551 nm
emission maximum (in CC(C)=O): 544 nm
emission maximum (in CCCCCC): 495 nm
emission maximum (in CCOC(C)=O): 524 nm
emission maximum (in CS(C)=O): 553 nm
emission maximum (in Cc1ccc(C)cc1): 521 nm
emission maximum (in ClC(Cl)(Cl)Cl): 520 nm
emission maximum (in ClC(Cl)Cl): 551 nm
emission maximum (in c1ccccc1): 524 nm

SMILES: CC[C@H](C)COc1ccc(C2=C3C(C)=C(c4ccc5ccc6cccc7ccc4c5c67)C(C)=[N+]3[B-](F)(F)n3c(C)c(-c4ccc5ccc6cccc7ccc4c5c67)c(C)c32)cc1
emission maximum (in ClCCl): 585 nm

SMILES: C[N+]1=C(/C=C/C2=C3Oc4c(cc5c6c4CCCN6CCC5)C(c4ccccc4C(=O)O)=C3CCC2)C(C)(C)c2ccccc21
emission maximum (in CC#N): 760 nm
emission maximum (in CCO): 745 nm
emission maximum (in CO): 749 nm
emission maximum (in ClC(Cl)Cl): 757 nm

SMILES: CCCCc1ccc2c(c1)c1cc(CCCC)ccc1n2-c1ccc(S(=O)(=O)c2ccc(S(=O)(=O)c3ccc(-n4c5ccc(CCCC)cc5c5cc(CCCC)ccc54)cc3)cc2)cc1
emission maximum (in Cc1ccccc1): 450 nm
emission maximum (in c1cc(-n2c3ccccc3c3ccccc32)nc(-n2c3ccccc3c3ccccc32)c1): 467.24 nm

SMILES: CC1=[N+]2C(=Cc3ccc(C)n3[B-]2(F)F)C=C1c1cc2n(c1)[B-](F)(F)[N+]1=CC=CC1=C2c1c(C)cc(C)cc1C
emission maximum (in C1CCCCC1): 636 nm
emission maximum (in CCOC(C)=O): 683 nm

SMILES: Cc1ccc2c(c1)C1(c3ccccc3-c3ccccc31)c1cc(C)ccc1N2c1ccc(-c2nc(-c3ccccc3)cc(-c3ccccc3)n2)cc1
emission maximum (in Cc1ccccc1): 458 nm
emission maximum [1]: 464 nm

SMILES: c1ccc(-c2nc(-c3ccccc3)nc(-c3ccc(-n4c5ccccc5c5cc6c7ccccc7n7c8ccccc8c(c54)c67)cc3)n2)cc1
emission maximum (in Cc1ccccc1): 450 nm
emission maximum [1]: 460 nm

SMILES: N#CC(C#N)=Cc1nc2ccc(C#Cc3ccc(N(c4ccccc4)c4ccccc4)cc3)cc2s1
emission maximum (in Cc1ccccc1): 617 nm

SMILES: CC1(C)CC(=O)C2=C(C1)Oc1ccc3cc(O)ccc3c1C2c1ccccn1 (centres undefined)
emission maximum (in C1CCOC1): 374 nm
emission maximum (in C1COCCO1): 377 nm
emission maximum (in CC#N): 378 nm
emission maximum (in CCCCCCC): 359 nm
emission maximum (in CCO): 377 nm
emission maximum (in CO): 377 nm
emission maximum (in O): 378 nm

SMILES: CCC(C)(C)c1ccc2c(c1)C(CC)(CC)c1cc(-c3ccc4c(c3)C(CC)(CC)c3cc(C(C)(C)CC)ccc3-4)ccc1-2
emission maximum (in C1CCCCC1): 371 nm

SMILES: CC(C)n1c(=O)c2cc3ccc4cccc5ccc(c2c1=O)c3c45
emission maximum (in ClC(Cl)Cl): 457 nm
